Experimental data taken from patent US20250019387A1 (Frontier Medicines Corporation, priority 0001, published 2025).

The compounds below were run against KRAS G12C and cRAF (Ras-binding domain) interaction (Homo sapiens (Human), UniProt P01116, C118S/C51S/C80L/G12C) (assay: Inhibition of KRAS G12C and cRAF binding (AlphaScreen)). Settings: GMPPNP-loaded KRAS G12C, 19-20 hours incubation with compound; read-out: IC50 (Inhibition of KRAS G12C and cRAF Binding).
Outline: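 Compounds (DMSO) preincubated 19-20 h at room temperature, then RBD with streptavidin donor and glutathione acceptor beads added in 25 mM Hepes pH 7.4, 150 mM NaCl, 5 mM MgCl2, 0.01% Triton X-100, 2% DMSO for 60-90 min. Emission 570 nm (excitation 680 nm); IC50 by 4-parameter fit. Counter-screen used biotin-AviTag-GST instead of RBD.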

KRAS G12C and cRAF (Ras-binding domain) interaction, sequence (P01116 other isoform, or with tags, fused parts or gaps G12C/C51S/C80L/C118S): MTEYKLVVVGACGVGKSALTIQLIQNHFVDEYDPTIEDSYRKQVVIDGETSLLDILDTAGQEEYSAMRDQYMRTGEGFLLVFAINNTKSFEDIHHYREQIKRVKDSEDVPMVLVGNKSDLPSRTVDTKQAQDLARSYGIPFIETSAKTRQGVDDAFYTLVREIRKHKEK

Row | IC50 | SMILES
1 | 100 to 500 nM | C=CC(=O)N1C[C@H](N(C)c2nc(OCC34CCCN3CCC4)nc3c(F)c(-c4cccc5cccc(Cl)c45)ncc23)C[C@H]1CC#N [Example 119, 2-((2S,4R)-1-acryloyl-4-((7-(8-chloronaphthalen-1-yl)-8-fluoro-2-((tetrahydro-1H-pyrrolizin-7a(5H)-yl)methoxy)pyrido[4,3-d]pyrimidin-4-yl)(methyl)amino)pyrrolidin-2-yl)acetonitrile]
2 | 10 to 100 nM | CN(c1nc(OCC23CCCN2CCC3)nc2c(F)c(-c3cccc4ccc(F)c(Cl)c34)ncc12)[C@@H]1CCN(C(=O)/C=C/c2nc(C(C)(C)O)no2)C1 [Example 61, (R,E)-1-(3-((7-(8-chloro-7-fluoronaphthalen-1-yl)-8-fluoro-2-((hexahydro-1H-pyrrolizin-7a-yl)methoxy)pyrido[4,3-d]pyrimidin-4-yl)(methyl)amino)pyrrolidin-1-yl)-3-(3-(2-hydroxypropan-2-yl)-1,2,4-oxadiazol-5-yl)prop-2-en-1-one]
3 | 100 to 500 nM | CN1CC(/C=C/C(=O)N2CC[C@@H](N(C)c3nc(OC[C@@]45CCCN4C[C@H](F)C5)nc4c(F)c(-c5cccc6ccc(F)c(Cl)c56)ncc34)C2)C1 [Example 127, (E)-1-((R)-3-((7-(8-chloro-7-fluoronaphthalen-1-yl)-8-fluoro-2-(((2R,7aS)-2-fluorotetrahydro-1H-pyrrolizin-7a(5H)-yl)methoxy)pyrido[4,3-d]pyrimidin-4-yl)(methyl)amino)pyrrolidin-1-yl)-3-(1-methylazetidin-3-yl)prop-2-en-1-one]
4 | 100 to 500 nM | CN1CCOCC1C#CC(=O)N1CC[C@@H](N(C)c2nc(OC[C@@]34CCCN3C[C@H](F)C4)nc3c(F)c(-c4cccc5cccc(Cl)c45)ncc23)C1 (stereo partly drawn) [Example 188, 1-((R)-3-((7-(8-chloronaphthalen-1-yl)-8-fluoro-2-(((2R,7aS)-2-fluorohexahydro-1H-pyrrolizin-7a-yl)methoxy)pyrido[4,3-d]pyrimidin-4-yl)(methyl)amino)pyrrolidin-1-yl)-3-(4-methylmorpholin-3-yl)prop-2-yn-1-one]
5 | 10 to 100 nM | CN(c1nc(OC[C@@H]2CCCN2C)nc2c(F)c(-c3cccc4cccc(Cl)c34)ncc12)C1CCN(C#N)C1 (stereo partly drawn) [Example 35, 3-((7-(8-chloronaphthalen-1-yl)-8-fluoro-2-(((S)-1-methylpyrrolidin-2-yl)methoxy)pyrido[4,3-d]pyrimidin-4-yl)(methyl)amino)pyrrolidine-1-carbonitrile]
6 | 100 to 500 nM | Cc1nc(C)c(F)c(/C=C/C(=O)N2CC[C@@H](N(C)c3nc(OC[C@@]45CCCN4C[C@H](F)C5)nc4c(F)c(-c5cccc6ccc(F)c(F)c56)ncc34)C2)n1 [Example 294, (E)-1-((R)-3-((7-(7,8-difluoronaphthalen-1-yl)-8-fluoro-2-(((2R,7aS)-2-fluorotetrahydro-1H-pyrrolizin-7a(5H)-yl)methoxy)pyrido[4,3-d]pyrimidin-4-yl)(methyl)amino)pyrrolidin-1-yl)-3-(5-fluoro-2,6-dimethylpyrimidin-4-yl)prop-2-en-1-one]
7 | 10 to 100 nM | C#Cc1c(F)ccc2cccc(-c3ncc4c(N(C)[C@@H]5CCN(C(=O)/C=C/CN6CC[C@@H](F)C6)C5)nc(OC[C@@]56CCCN5C[C@H](F)C6)nc4c3F)c12 [Example 289, (E)-1-((R)-3-((7-(8-ethynyl-7-fluoronaphthalen-1-yl)-8-fluoro-2-(((2R,7aS)-2-fluorotetrahydro-1H-pyrrolizin-7a(5H)-yl)methoxy)pyrido[4,3-d]pyrimidin-4-yl)(methyl)amino)pyrrolidin-1-yl)-4-((R)-3-fluoropyrrolidin-1-yl)but-2-en-1-one]
8 | 10 to 100 nM | CN(C)C/C=C/S(=O)(=O)CCN(C)c1nc(OC[C@@H]2CCCN2C)nc2c1CCN(c1cccc3cccc(Cl)c13)C2 [Example 52, (S,E)-7-(8-chloronaphthalen-1-yl)-N-(2-((3-(dimethylamino)prop-1-en-1-yl)sulfonyl)ethyl)-N-methyl-2-((1-methylpyrrolidin-2-yl)methoxy)-5,6,7,8-tetrahydropyrido[3,4-d]pyrimidin-4-amine]
9 | 10 to 100 nM | C=CC(=O)N1CC[C@@H](N(C)c2nc(OC[C@@]34CCCN3C[C@H](F)C4)nc3c(F)c(-c4cccc5ccc(F)c(C)c45)ncc23)C1 [Example 195, 1-((R)-3-((8-fluoro-7-(7-fluoro-8-methylnaphthalen-1-yl)-2-(((2R,7aS)-2-fluorotetrahydro-1H-pyrrolizin-7a(5H)-yl)methoxy)pyrido[4,3-d]pyrimidin-4-yl)(methyl)amino)pyrrolidin-1-yl)prop-2-en-1-one]
10 | 10 to 100 nM | CN(c1nc(OC[C@@]23CCCN2C[C@H](F)C3)nc2c1CCN(c1cccc3cccc(Cl)c13)C2)[C@@H]1CCN(C(=O)/C=C/c2nc(C3(C)CC3)no2)C1 [Example 114, (E)-1-((R)-3-((7-(8-chloronaphthalen-1-yl)-2-(((2R,7aS)-2-fluorohexahydro-1H-pyrrolizin-7a-yl)methoxy)-5,6,7,8-tetrahydropyrido[3,4-d]pyrimidin-4-yl)(methyl)amino)pyrrolidin-1-yl)-3-(3-(1-methylcyclopropyl)-1,2,4-oxadiazol-5-yl)prop-2-en-1-one]
11 | 100 to 500 nM | CN(c1nc(OCC23CCCN2CCC3)nc2c1CCN(c1cccc3cccc(Cl)c13)C2)[C@@H]1CCN(C(=O)/C=C/c2nc(C3(C)CC3)no2)C1 [Example 128, (R,E)-1-(3-((7-(8-chloronaphthalen-1-yl)-2-((hexahydro-1H-pyrrolizin-7a-yl)methoxy)-5,6,7,8-tetrahydropyrido[3,4-d]pyrimidin-4-yl)(methyl)amino)pyrrolidin-1-yl)-3-(3-(1-methylcyclopropyl)-1,2,4-oxadiazol-5-yl)prop-2-en-1-one]
12 | > 500 nM | C=CS(=O)(=O)C1CCN(c2nc(OC[C@@H]3CCCN3C)nc3c2CCN(c2cccc4cccc(Cl)c24)C3)C1 (stereo partly drawn) [Example 51, 7-(8-chloronaphthalen-1-yl)-2-(((S)-1-methylpyrrolidin-2-yl)methoxy)-4-(3-(vinylsulfonyl)pyrrolidin-1-yl)-5,6,7,8-tetrahydropyrido[3,4-d]pyrimidine]
13 | 100 to 500 nM | C=CC(=O)N1C[C@H](O)[C@@H](N(C)c2nc(OC[C@@]34CCCN3C[C@H](F)C4)nc3c(F)c(-c4cccc5cccc(Cl)c45)ncc23)C1 [Example 57, 1-((3S,4S)-3-((7-(8-chloronaphthalen-1-yl)-8-fluoro-2-(((2R,7aS)-2-fluorohexahydro-1H-pyrrolizin-7a-yl)methoxy)pyrido[4,3-d]pyrimidin-4-yl)(methyl)amino)-4-hydroxypyrrolidin-1-yl)prop-2-en-1-one]
14 | 10 to 100 nM | CN(c1nc(OC[C@@]23CCCN2C[C@H](F)C3)nc2c(F)c(-c3cccc4cccc(Cl)c34)ncc12)[C@@H]1CCN(C(=O)/C=C/c2ncncc2F)C1 [Example 230, (E)-1-((R)-3-((7-(8-chloronaphthalen-1-yl)-8-fluoro-2-(((2R,7aS)-2-fluorotetrahydro-1H-pyrrolizin-7a(5H)-yl)methoxy)pyrido[4,3-d]pyrimidin-4-yl)(methyl)amino)pyrrolidin-1-yl)-3-(5-fluoropyrimidin-4-yl)prop-2-en-1-one]

Row | SMILES | IC50
15 | C=CC(=O)N1CC[C@@H](N(C)c2nc(OC[C@@]34CCCN3C[C@H](F)C4)nc3c(F)c(-c4cc(OC(F)F)cc5cccc(Cl)c45)ncc23)C1 [Example 82, 1-((R)-3-((7-(8-chloro-3-(difluoromethoxy)naphthalen-1-yl)-8-fluoro-2-(((2R,7aS)-2-fluorotetrahydro-1H-pyrrolizin-7a(5H)-yl)methoxy)pyrido[4,3-d]pyrimidin-4-yl)(methyl)amino)pyrrolidin-1-yl)prop-2-en-1-one] | > 500 nM
16 | C=CC(=O)C1[C@H]2CCN(c3nc(OC[C@@H]4CCCN4C)nc4c3CCN(c3cccc5cccc(Cl)c35)C4)C[C@@H]12 (stereo in doubt) [Example 43] | 10 to 100 nM
17 | C#Cc1c(F)ccc2cccc(-c3ncc4c(N(C)[C@@H]5CCN(C(=O)/C=C/CN(C)C)C5)nc(OC[C@@]56CCCN5C[C@H](F)C6)nc4c3F)c12 [Example 201, (E)-4-(dimethylamino)-1-((R)-3-((7-(8-ethynyl-7-fluoronaphthalen-1-yl)-8-fluoro-2-(((2R,7aS)-2-fluorohexahydro-1H-pyrrolizin-7a-yl)methoxy)pyrido[4,3-d]pyrimidin-4-yl)(methyl)amino)pyrrolidin-1-yl)but-2-en-1-one] | < 10 nM

Same assay, conditions: additional exemplary compounds; KRAS G12C and cRAF binding; read-out: RAF1 RBD IC50

Row | IC50 | SMILES
18 | 10 to 100 nM | COC/C=C/C(=O)N1CC[C@@H](N(C)c2nc(OCC34CCCN3CCC4)nc3c(F)c(-c4cccc5cccc(Cl)c45)ncc23)C1
19 | > 500 nM | CN1CCC[C@H]1COc1nc(N(C)[C@@H]2CCN(C(=O)/C=C/CN3CC(F)C3)C2)c2cnc(-c3cccc4cccc(Cl)c34)c(F)c2n1
20 | > 500 nM | C=CC(=O)N1CCC[C@@H](N(C)c2nc(OC[C@@]34CCCN3C[C@H](F)C4)nc3c2CCN(c2cccc4cccc(Cl)c24)C3)C1
21 | > 500 nM | C=CC(=O)[C@H](C)CN(C)c1nc(OC[C@@H]2CCCN2C)nc2c1CCN(c1cccc3ccccc13)C2
22 | > 500 nM | C=CC(=O)N1CCC(N(c2nc(OC[C@@]34CCCN3C[C@H](F)C4)nc3c2CCN(c2cccc4cccc(Cl)c24)C3)C2CC2)C1 (stereo partly drawn)
23 | > 500 nM | Cc1nccc(/C=C/C(=O)N2CCC23CN(c2nc(OC[C@@]45CCCN4C[C@H](F)C5)nc4c(F)c(-c5cccc6cccc(Cl)c56)ncc24)C3)n1
24 | > 500 nM | C/C=C/C(=O)CCN(C)c1nc(OC[C@@H]2CCCN2C)nc2c1CCN(c1cccc3ccccc13)C2
25 | > 500 nM | C=CC(=O)COc1nc(OC[C@@H]2CCCN2C)nc2c1CCN(c1cccc3ccccc13)C2
26 | > 500 nM | C=CC(=O)N1C[C@@H](N(C)c2nc(OCC34CCCN3CCC4)nc3c2CCN(c2cccc4cccc(Cl)c24)C3)C[C@@H]1CC#N
27 | 10 to 100 nM | C=CC(=O)N1CC[C@H](O)[C@@H](N(C)c2nc(OC[C@@]34CCCN3C[C@H](F)C4)nc3c(F)c(-c4cccc5cccc(Cl)c45)ncc23)C1
